Measurements reported in patent US20090247520A1, “INHIBITORS OF ANTIGEN RECEPTOR-INDUCED NF-kappa B ACTIVATION” (The Burnham Institute for Medical Research, priority 2008, published 2009).
“Also recorded” adds a separate entry of the source.

Columns and labels:
MDP (NOD2) induced IL-6 = assay: IL-6 in THP.1 cell cultures stimulated with MDP; type: cell-based; conditions: data not shown
Excerpt: (§1) FIG. 1 is a flow chart of screening and counter-screenings for selective inhibitors of antigen-receptor induced NF-κB pathway. A total of 114,889 compounds were screened. From a screen of 53,280 commercially available compounds (left column), 519 hits were obtained, of which 248 reconfirmed using the same primary screening assay. […] From these 11 active compounds, one hit, CID-2858522, inhibited PMA/Ionomycin-induced production of cytokine IL-8 by the HEK293 cell line. CID-2858522 was then characterized (right column). PDB was substituted for PMA to confirm suppression of an alternative PKC activator. Pathway selectivity was assessed using panels of cell lines, starting with HEK293 cells in which each of the remaining NF-κB activation pathways was stimulated, showing inhibition only of PMA/Ionomycin-induced NF-κB reporter gene activity (panel 1). […]

[1] = tested on: PMA/Ionomycin-induced NF-κB reporter gene activity; assay: Transient transfection NF-κB-luciferase reporter assay (episomal plasmid), PMA/Ionomycin; type: cell-based; conditions: not shown
Description: Dual-luciferase assay for NF-κB activity. Cells seeded in 96 well black plates were co-transfected with Renilla luciferase plasmid and NF-κB-responsive firefly luciferase reporter gene plasmid, with pcDNA3 control or plasmids encoding various desired proteins, using Lipofectamine 2000. The culture medium was aspirated and cells were washed with PBS, prior to adding 50 μL per well of Passive Lysis Buffer (Promega), followed by addition of Dual-luciferase assay reagent (Promega) and measurement of firefly and renilla luciferase activity, using a spectrofluorimeter.

Raf = assay: KINOMEscan competition binding assay, Raf; set-up: species or system human; conditions: 10 μM
Excerpt: (§2) CID-2858522 is not a potent protein kinase inhibitor. Protein kinases play critical roles in NF-κB activation. PKCs are proximal kinases in the NF-κB pathways activated by PMA/Ionomycin and by T- and B-cell antigen receptors, while the IKKs are distal kinases operating in the terminal segments of these and other NF-κB activation pathways. We therefore tested whether CID-2858522 inhibits members of these kinase families by in vitro kinase assays. For these experiments, we tested PKC-beta and PKC-theta (the PKC family members implicated in TCR/BCR signaling), and IKK-beta (a component of the IKK complex) (FIG. 6). […] In addition to assessing these three kinases by conventional in vitro kinase assays, a kinome screen was performed using a high throughput screening method, KINOMEscan™, which is an active-site dependent competition binding assay in which human kinases of interest are fused to a proprietary tag (Ambit). The amount of kinase bound to an immobilized, active-site directed ligand is measured in the presence and absence of the test compound. […] Thus, CID-2858522 inhibits none of the protein kinases previously implicated in regulating NF-κB.
(§3) In Vitro Kinase Assays. PKC-beta, PKC-theta and IKK-beta in vitro kinase assays were performed using the HTScan Kinase Assay Kit (Cell Signaling, Danvers, Mass.) according to manufacturer's protocols. […]

purified luciferase = biological target: T1, purified luciferase (Photinus pyralis, UniProt P08659); assay: Luciferase inhibition counter screen, in vitro enzymatic assay; type: biochemical; conditions: not shown
T1 construct: purchased Perkin Elmer
Description: Counter Screening and Secondary Assays. To counter-screen for inhibitors of the TNF pathway, HEK293-NFκB-Luc cells were seeded at 10^5 cells per well in 90 μL medium in white 96-well plates (Greiner Bio-One) and cultured overnight, before adding compounds (5 μL in medium) to cells. After 2 h incubation, 5 μL TNF (200 ng/mL) (R&D Systems) was added (final concentration 10 ng/mL) and cells were incubated for 16 h. Luciferase activity was measured using Britelite kit (Perkin Elmer). To counter-screen for inhibitors of NF-κB induced by TLR4, CD40, NOD1, NOD2, cIAP2/MALT, or XIAP/TAB, the 293-NF-κB-luc cells cultured in 96 well plates as above were pretreated with compounds for 2 h and then transfected using Lipofectamine 2000 with various plasmids including pcDNA3 (“empty vector” control) or plasmids encoding CD4-TLR4, CD40, NOD1, NOD2, cIAP2/MALT, XIAP/TAB, using 0.2 μL of transfection reagent containing 100 ng DNA per well. Cells were cultured in medium containing CID-2858522 or other compounds and luciferase activity was measured 48 h later. […] Reactions were then initiated by addition of 50 μL 160 nM ATP (Sigma) in PBS and luciferase activity was measured 2 h later using a luminometer (LJL Biosystems, Sunnyvale, Calif.).

[2] = tested on: LPS (TLR4 agonist) induced IL-6 production; assay: IL-6 production by THP.1 monocytes stimulated with LPS; type: cell-based; conditions: listed as CID-2858522
Excerpt: as §1

TLK1 = biological target: T2, TLK1 (Homo sapiens, UniProt Q9UKI8); assay: KINOMEscan competition binding assay, TLK1
T2 construct: proprietary tag (Ambit); purchased Ambit, Inc
Excerpt: as §2, §3

T2 sequence (Q9UKI8 whole entry): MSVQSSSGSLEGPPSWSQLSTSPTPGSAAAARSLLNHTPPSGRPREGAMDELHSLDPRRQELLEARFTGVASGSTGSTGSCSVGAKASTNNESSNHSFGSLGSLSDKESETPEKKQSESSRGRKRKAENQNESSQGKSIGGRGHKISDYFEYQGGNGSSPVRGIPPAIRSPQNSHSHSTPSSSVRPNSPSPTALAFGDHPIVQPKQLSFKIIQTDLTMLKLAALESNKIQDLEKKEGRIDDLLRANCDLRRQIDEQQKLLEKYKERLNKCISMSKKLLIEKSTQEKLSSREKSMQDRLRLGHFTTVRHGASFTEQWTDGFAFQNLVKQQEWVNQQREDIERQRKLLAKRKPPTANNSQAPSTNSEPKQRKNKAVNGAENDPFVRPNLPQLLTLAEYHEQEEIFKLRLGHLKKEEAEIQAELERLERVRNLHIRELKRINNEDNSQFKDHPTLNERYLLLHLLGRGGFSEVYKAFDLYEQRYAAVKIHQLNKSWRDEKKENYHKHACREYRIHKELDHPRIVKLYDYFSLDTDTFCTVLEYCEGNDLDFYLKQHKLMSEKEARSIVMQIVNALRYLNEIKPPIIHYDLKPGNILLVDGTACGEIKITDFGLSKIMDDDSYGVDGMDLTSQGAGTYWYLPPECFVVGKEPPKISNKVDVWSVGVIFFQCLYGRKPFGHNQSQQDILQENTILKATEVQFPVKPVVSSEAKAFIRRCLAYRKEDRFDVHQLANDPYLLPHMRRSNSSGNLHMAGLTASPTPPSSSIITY
T1 sequence (P08659 whole entry, species assumed): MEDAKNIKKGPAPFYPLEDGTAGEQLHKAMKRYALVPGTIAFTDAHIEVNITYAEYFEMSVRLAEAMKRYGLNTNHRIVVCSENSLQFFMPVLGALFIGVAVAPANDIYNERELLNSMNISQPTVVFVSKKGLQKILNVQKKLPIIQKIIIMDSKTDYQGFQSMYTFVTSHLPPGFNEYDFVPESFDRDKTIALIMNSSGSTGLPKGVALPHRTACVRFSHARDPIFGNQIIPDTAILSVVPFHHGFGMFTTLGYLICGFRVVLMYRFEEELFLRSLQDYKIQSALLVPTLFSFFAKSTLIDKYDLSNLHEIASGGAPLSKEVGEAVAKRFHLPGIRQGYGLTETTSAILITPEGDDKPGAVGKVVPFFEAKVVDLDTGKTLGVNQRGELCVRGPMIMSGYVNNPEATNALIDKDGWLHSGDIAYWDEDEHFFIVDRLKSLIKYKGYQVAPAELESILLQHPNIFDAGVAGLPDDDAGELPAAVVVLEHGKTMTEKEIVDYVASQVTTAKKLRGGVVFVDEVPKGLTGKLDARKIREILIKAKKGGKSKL

Cc1cc2nc(NCCCO)n(CC(=O)c3cc(C(C)(C)C)c(O)c(C(C)(C)C)c3)c2cc1C [Compound 1, 2-(2-(3-Hydroxypropylamino)-5,6-dimethyl-1H-benzo[d]imidazol-1-yl)-1-(3,5-di-tert-butyl-4-hydroxyphenyl)ethanone]
inhibition of MDP-induced NF-κB (IL-6 in THP.1) (MDP (NOD2) induced IL-6): failed to inhibit | inhibition of NF-κB reporter in transient transfection assay [1]: potently inhibited | inhibition of Raf (Raf): 57% | inhibition of luciferase activity (purified luciferase): did not inhibit | suppression of IL-6 production, LPS-stimulated THP.1 [2]: failed to inhibit; also recorded: did not suppress | inhibition at 10 µM (TLK1): 70%
